Assay results from patent publication US11207461B2, “Drug delivery system and method for controlled and continuous delivery of drugs into the brain by bypassing the blood brain barrier” (priority 2015, dated 2021).

What was measured:
[1] = rabbit
Description: The device was surgically placed in a rabbit in the maxillary sinus region by removing the bone overlying the respiratory mucosa. The tip of the device was placed beneath the maxillary sinus lining mucosa in contact with the connective tissue side of the mucosa. […] FIG. 15 refers to the comparative brain values of dopamine using High Performance Liquid Chromatography, between the control and the rabbit in which dopamine was delivered in vivo in a continuous and controlled manner under the maxillary sinus mucosa using the drug delivery system. […] The drug delivery was stopped at the twentieth minute. […] FIG. 16 refers to blood values of dopamine in the rabbit after in vivo delivery of dopamine under the maxillary sinus mucosa using the device.

[2] = rabbit; blood samples before and at 10, 20 and 30 minutes after start of drug delivery; FIG. 18
Description: The device was placed into the maxillary sinus of a rabbit by perforating the maxillary sinus mucosa from the connective tissue side and placing the implant tip into the sinus cavity and above the epithelial layer. […] Whole body perfusion was done using a peristaltic pump with warm physiological saline for 20 minutes at a controlled rate. The perfused brain was then resected at the end one hour from the start of the procedure. Brain samples from different parts of the brain was analyzed using High Performance Liquid Chromatography. […] During the procedure, a blood sample was collected before drug delivery. Three blood samples were then collected at intervals of 10, 20 and 30 minutes respectively following start of drug delivery. The samples were analyzed using High Performance Liquid Chromatography.

| blood value of dopamine (HPLC) after drug delivery was stopped ([1]; blood sample at 30 minutes, delivery stopped at the twentieth minute, FIG. 16) | blood values of dopamine (HPLC) during drug delivery ([1]; blood samples at 10 and 20 minutes after start of drug delivery, versus sample before delivery, FIG. 16) | SMILES | drug in peripheral circulation during drug delivery ([1]; dopamine infused under maxillary sinus mucosa, during the 20 minute delivery) | brain concentration of dopamine (HPLC) compared with the normal ([1]; infused under maxillary sinus mucosa for twenty minutes at 1 milliliter per hour, perfused brain resected at one hour, samples from different parts of the brain, FIG. 15) | blood values of lignocaine (HPLC), drug in peripheral circulation [2] |
| --- | --- | --- | --- | --- | --- |
| peaked again | dipped | NCCc1ccc(O)c(O)c1 [Dopamine] | no increase of the drug in peripheral circulation | increased concentration of dopamine in all parts of the brain except diencephalon |  |
|  |  | CCN(CC)CC(=O)Nc1c(C)cccc1C [Lignocaine] |  |  | no drug in the peripheral circulation |
